This data set can be described thus: gradient 5% acetonitrile 3 min, to 50% in 2 min, to 85% in 15 min, held 3 min, 100 µL/min. The conditions noted are these: column: Zorbax Extend-C18 2.1 x 50 mm; eluents: water / acetonitrile, 0.1% formic acid. In a few lines:
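Pure standards were run in mixtures of ~100 molecules by HPLC coupled to a quadrupole time-of-flight mass spectrometer. The column was a Zorbax Extend-C18 (2.1 × 50 mm, 1.8 μm) at 100 μL/min, with water and acetonitrile each containing 0.1% formic acid, in positive and negative ionization mode. Dead and dwell volumes were 40 μL and 900 μL. Retention time was taken from computationally picked adduct peaks, each manually inspected, with data collected over 3 months.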
In the case of `N#CCCN1CCN(c2ccc(NC(=O)c3ccc(Br)cc3)c(C(=O)O)c2)CC1`, the RP-LC retention time was 678 s. As for `O=c1n(Cc2ccccc2)nc2n1CCN(S(=O)(=O)Cc1ccccc1)CC2`, the figure is 816 s. `O=C(NCc1ccccc1F)c1cn(-c2cc(N3CCOCC3)ncn2)cn1` displayed an RP-LC retention time of 758 s. As for `CCCN1C(=O)Cc2ccccc2C1C(=O)NCC1CCCCC1` (stereo not given), the figure is 881 s; as for `CCc1cc(N2CCN(C(=O)c3ccc(C#N)cc3)CC2)nc2nncn12`, 581 s; as for `Cc1c(C(=O)N2CCOCC2)cnn1-c1ccc(-c2nc(C(C)(C)C)no2)cn1`, 942 s. The same measure for `O=S(=O)(c1cc(-c2nnc(C3CCC3)o2)co1)N1CCc2ccccc2C1`: 1030 s. As for `O=C(Cc1c(F)cccc1Cl)Nc1nnc(C2CC(=O)N(c3ccccc3)C2)o1` (stereo not given), the figure is 691 s. Turning to `Cc1ccc(N2CC(C(=O)Nc3cc(-c4nc(C)cs4)sc3C)CC2=O)cc1` (stereo not given), the RP-LC retention time worked out at 848 s. As for `CCOc1ccccc1NC(=O)C1CCN(S(C)(=O)=O)c2cc(C)ccc2O1` (stereo not given), the figure is 830 s. The compound `O=C(O)c1cn2ccnc(-c3ccccc3)c2n1` came in with an RP-LC retention time of 644 s. The same measure for `Cc1oc(-c2[nH]ncc2C(=O)N2CCCC2)cc1S(=O)(=O)NCc1ccc(Cl)cc1`: 737 s; for `CCN(Cc1ccc(C)cc1)Cc1cc(=O)n2ccc(C)cc2n1`: 628 s; for `O=C(NCCC1=CCCCC1)c1nnc(-c2ccc(S(=O)(=O)N3CCCC3)cc2)o1`: 1050 s. The same measure for `O=C(NCCCN1CCOCC1)c1c2c(nc3ccccc13)C(=O)N(C1CCCCC1)C2`: 598 s; for `CN(C)c1cccc(C(=O)Nc2ccc(-c3nnc4n3CCCC4)cc2)c1`: 736 s.

For `Cc1cccc(NC(=O)N2CCC(C)(C(=O)NCc3ccc(F)cc3)CC2)c1C`, the RP-LC retention time turned out to be 834 s. The same measure for `CCn1c(=O)c2ccccc2n(Cc2nc(-c3ccc(C(F)(F)F)cc3)no2)c1=O`: 1120 s; for `CCc1cc2c(N3CCCC(C(=O)N(C)C)C3)nccc2s1` (stereo not given): 640 s.

With `O=C(Cn1cnc2nc(N3CCCC(C(=O)NC4CC4)C3)sc2c1=O)NC1CCCCC1` (stereo not given), the RP-LC retention time amounted to 652 s.

`CCn1c(C(=O)NCc2ccc(Cl)cc2)cc2sccc21` yielded an RP-LC retention time of 1210 s. In turn, `COc1ccc(OC)c(CNC(=O)c2cccc3c2SCCC3=O)c1` displayed an RP-LC retention time of 801 s.

`COc1ccc(-c2noc(CN3N=NC4C(=O)N(c5ccc(C)c(Cl)c5)C(=O)C43)n2)c(OC)c1` (stereo not given) returned an RP-LC retention time of 974 s. On to `CC1=NS(=O)(=O)N(C)C=C1C(=O)OCc1nc(-c2ccc(C)cc2)no1`, for which the RP-LC retention time is 977 s. The same measure for `CCn1nccc1C(=O)NCCn1c(=O)n(Cc2cccc(C)c2)c2cccnc21`: 784 s; for `O=C(NCc1ccccc1Cl)C(=O)Nc1cccc(N2CCCCC2=O)c1`: 751 s. As to `CCOC(=O)N1CCN(C(=S)Nc2ccc3nc(N4CCN(C)CC4)cc(C)c3c2)CC1`, the RP-LC retention time is 540 s. The compound `Cc1[nH]nc(-c2c(C)sc(C)c2S(=O)(=O)N2CCc3ccccc3C2)c1C` came in with an RP-LC retention time of 975 s. For the compound `CC(=O)Nc1ccc(SCC(=O)c2ccc(Cl)cc2)nn1`, the RP-LC retention time amounted to 756 s. As for `CN(C)c1cccc(C(=O)NCC2(O)CCCC2)c1`, the figure is 569 s; as for `CCc1cccc(N2C(=O)CN(S(C)(=O)=O)CC2(C)C(=O)NCc2ccc(F)cc2)c1` (stereo not given), 847 s; as for `O=C(Nc1cccc(F)c1)c1nnc(CSCC(=O)N2CCN(c3ccccn3)CC2)s1`, 654 s. Compound `Cc1ncn(CC(=O)Nc2ccc(F)cc2)c(=O)c1C` gave an RP-LC retention time of 638 s. For `CCCCn1c(=O)c2ccccc2n(Cc2nc(-c3ccccc3OC)no2)c1=O`, the RP-LC retention time stood at 1050 s. As for `Cc1ccc(F)c(NC(=O)c2nc3nc(C)cc(C(F)F)n3n2)c1`, the figure is 846 s.

In the case of `CCC(C)NC(=O)c1ccc2c(c1)N(C(=O)NC)CC2` (stereo not given), the RP-LC retention time was determined as 652 s. In turn, `Cn1c(=O)c(N2CCC(NC(=O)NCc3ccc(F)cc3)CC2)nc2cccnc21` came in with an RP-LC retention time of 771 s. In turn, `O=C(c1ccc(-c2cccnc2)nc1)N1CCN(c2ccccc2Cl)CC1` showed an RP-LC retention time of 764 s. As for `Cc1ccc(C)c(CNC(=O)c2cc3n(n2)CC(C)(C(=O)NCc2ccc(F)cc2)N(C)C3=O)c1` (stereo not given), the figure is 842 s; as for `CC(C)NC(=O)c1nc(-c2ccnc(N3CCCCC3)c2)no1`, 671 s. Take `CCN(CC)C(=O)c1cccnc1`: the RP-LC retention time was found to be 627 s.

`COC(=O)C(C)NC(=O)N1CCN(c2nc3ccccc3n2Cc2ccccc2)CC1` (stereo not given) registered an RP-LC retention time of 659 s. In turn, `Cc1ccc(NS(=O)(=O)c2cc(-c3cc(C(F)(F)F)on3)sc2C)c(C)c1` had an RP-LC retention time of 1230 s. The compound `O=C(Nc1ccc2c(c1)OCCO2)N1CCC(Cc2nc(-c3ccncc3)n[nH]2)C1` (stereo not given) showed an RP-LC retention time of 580 s. The same measure for `COC(=O)c1c(C)[nH]c(C(=O)N2CCCC(C(=O)NC3CCCCCC3)C2)c1C` (stereo not given): 794 s; for `CCOC(=O)Cn1c(=O)c2c(nc3n2CC(C)CN3c2cc(C)cc(C)c2)n(C)c1=O` (stereo not given): 1050 s; for `COc1cccc(-n2cc(C(=O)Oc3cccnc3)c3ccccc3c2=O)c1`: 926 s. `Cc1c2cnn(-c3ccccc3)c(=O)c2c(C)n1C(C)C(=O)NCCCN1CCN(C)CC1` (stereo not given) returned an RP-LC retention time of 581 s.

Regarding `CC(Oc1c(Cl)cccc1Cl)C1=NCCN1` (stereo not given), the RP-LC retention time amounted to 622 s. For the compound `O=C(NCc1ccc(F)cc1Cl)C1CCN(c2ncnc3c2oc2ccccc23)CC1`, the RP-LC retention time was determined as 790 s. In turn, `O=c1c2oc3ccccc3c2ncn1Cc1nc(-c2ccc(F)cc2)no1` registered an RP-LC retention time of 945 s. The same measure for `CCCC(=O)Nc1sc2c(c1C(=O)Nc1ccccc1C)CCC2`: 1250 s; for `O=C(c1cn2ccnc(-c3ccccc3)c2n1)N1CCN(C(=O)c2ccco2)CC1`: 686 s; for `CNc1ncn(-c2c(C)cccc2C)c(=O)n1`: 684 s. The same measure for `CN(C)c1ncncc1N1CCC(C(=O)NC2CCCCCC2)CC1`: 624 s; for `O=C(Nc1cc(F)ccc1F)N1CCC(N2CCN(Cc3ccc(F)cc3)C2=O)CC1`: 850 s. The same measure for `COCc1nc2cccnc2n1C1CCN(C(=O)Nc2ccc(Br)c(C)c2)CC1`: 753 s; for `CN(CC1(C)CCOCC1)S(=O)(=O)c1ccc(F)c(F)c1`: 910 s; for `COc1cc(OC)c(NS(=O)(=O)c2cc(-c3cc(C(F)(F)F)[nH]n3)sc2C)cc1Cl`: 1020 s. For `Cc1oc(-c2[nH]ncc2C(=O)N2CCCC2)cc1S(=O)(=O)NCc1cccc(Cl)c1`, the RP-LC retention time was 796 s.

The values are drawn from the METLIN SMRT retention time set (Domingo-Almenara et al. 2019).
